In general, pIC50 refers to −log10 of the IC50, conventionally taken in molar units.

pIC50: −log10 of the molar value.

T1 sequence (Q2M2I8 whole entry): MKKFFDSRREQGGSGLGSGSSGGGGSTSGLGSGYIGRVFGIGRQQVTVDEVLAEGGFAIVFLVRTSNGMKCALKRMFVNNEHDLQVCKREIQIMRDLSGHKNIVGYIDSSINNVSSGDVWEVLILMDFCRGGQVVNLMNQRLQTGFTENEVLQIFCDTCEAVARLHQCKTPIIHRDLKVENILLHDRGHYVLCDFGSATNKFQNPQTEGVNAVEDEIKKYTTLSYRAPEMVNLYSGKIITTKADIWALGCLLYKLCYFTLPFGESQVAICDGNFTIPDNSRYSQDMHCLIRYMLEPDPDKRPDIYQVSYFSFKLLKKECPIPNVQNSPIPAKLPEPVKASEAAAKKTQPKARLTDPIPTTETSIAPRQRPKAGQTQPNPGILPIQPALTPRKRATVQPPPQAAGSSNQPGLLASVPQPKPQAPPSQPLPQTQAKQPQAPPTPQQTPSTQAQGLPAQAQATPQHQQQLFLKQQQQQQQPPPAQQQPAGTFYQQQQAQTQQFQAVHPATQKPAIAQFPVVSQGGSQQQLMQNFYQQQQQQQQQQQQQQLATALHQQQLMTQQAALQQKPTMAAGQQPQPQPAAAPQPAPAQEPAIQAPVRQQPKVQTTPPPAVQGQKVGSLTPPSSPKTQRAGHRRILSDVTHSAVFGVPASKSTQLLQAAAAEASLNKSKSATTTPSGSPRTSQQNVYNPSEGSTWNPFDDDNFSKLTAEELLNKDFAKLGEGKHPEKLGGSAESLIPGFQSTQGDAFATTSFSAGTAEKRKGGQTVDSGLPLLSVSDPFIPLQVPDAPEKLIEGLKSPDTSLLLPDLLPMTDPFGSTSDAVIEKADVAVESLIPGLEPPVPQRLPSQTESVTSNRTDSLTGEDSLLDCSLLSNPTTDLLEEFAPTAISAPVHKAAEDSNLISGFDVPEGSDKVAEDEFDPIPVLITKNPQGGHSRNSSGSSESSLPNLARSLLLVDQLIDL

The first assay addresses T1, GST-Xa-hAAK1 (Homo sapiens, UniProt Q2M2I8).
T1 construct: made in house
Nature of the assay: AAK1 kinase assay. The class given is biochemical. Particulars: ATP 22 μM, 3 hours at room temperature. On the procedure:
The assays were performed in U-bottom 384-well plates. […] The reactions were initiated by the combination of bacterially expressed, GST-Xa-hAAK1 with substrates and test compounds. The reactions were incubated at room temperature for 3 hours and terminated by adding 60 μl of 35 mM EDTA buffer to each sample. The reactions were analyzed on the Caliper LabChip 3000 (Caliper, Hopkinton, Mass.) by electrophoretic separation of the fluorescent substrate and phosphorylated product. […] Compounds were dissolved at 10 mM in dimethylsulfoxide (DMSO) and evaluated at eleven concentrations. IC50 values were derived by non-linear regression analysis.
On to `Cc1nccc2c1c(=O)n(C)c1cc(OC[C@@H](N)CC(C)C)c(C(C)O)cc21` (single isomer, unassigned) [Example 30], for which the pIC50 was 8.77. Turning to `CC(C)C[C@H](N)COc1ccc2c3ccncc3c(=O)n(CC(F)(F)F)c2c1` [Example 45, (S)-8-(2-amino-4-methylpentyloxy)-6-(2,2,2-trifluoroethyl)benzo[c][2,7]naphthyridin-5(6H)-one], the pIC50 was 7.54. Regarding `Cn1c(=O)c2cnccc2c2ccc(OCC3CCCCN3)cc21` (centres unmarked) [Example 57, 6-methyl-8-(piperidin-2-ylmethoxy)benzo[c][2,7]naphthyridin-5(6H)-one], the pIC50 is 6.64. For the molecule `CC(C)C[C@H](N)COc1ccc2c3ccncc3c(=O)n(CCO)c2c1` [Example 44, (S)-8-(2-amino-4-methylpentyloxy)-6-(2-hydroxyethyl)benzo[c][2,7]naphthyridin-5(6H)-one], the pIC50 was 7.39.

As to `CC(C)CC(C)(N)COc1ccc2c3ccncc3c(=O)n(C)c2c1` (centres unmarked) [Example 28, 8-((2-amino-2,4-dimethylpentyl)oxy)-6-methylbenzo[c][2,7]naphthyridin-5(6H)-one], the pIC50 is 8.96. As for `COc1ccc(CNc2nccc3c2c(=O)n(C)c2cc(OC[C@@H](N)CC(C)C)ccc32)cc1` [Example 50, (S)-8-((2-amino-4-methylpentyl)oxy)-4-((4-methoxybenzyl)amino)-6-methylbenzo[c][2,7]naphthyridin-5(6H)-one], the pIC50 was 7.48. Turning to `COCCn1c(=O)c2cnccc2c2ccc(OC[C@@H](N)CC(C)C)cc21` [Example 12, (S)-8-((2-amino-4-methylpentyl)oxy)-6-(2-methoxyethyl)benzo[c][2,7]naphthyridin-5(6H)-one], the pIC50 is 7.07. On to `CC(C)OC[C@H](N)COc1ccc2c3ccncc3c(=O)n(C)c2c1` [Example 53, (S)-8-(2-amino-3-isopropoxypropoxy)-6-methylbenzo[c][2,7]naphthyridin-5(6H)-one], for which the pIC50 is 6.92. With `COc1cc2c3ccnc(C)c3c(=O)n(C)c2cc1OCC(C)(N)CC(C)C` (centres unmarked) [Example 34, 8-((2-amino-2,4-dimethylpentyl)oxy)-9-methoxy-4,6-dimethylbenzo[c][2,7]naphthyridin-5(6H)-one], the pIC50 is 8.23. For `CC(C)C[C@H](N)COc1cc2c(cc1O)c1ccncc1c(=O)n2C` [Example 7, (S)-8-(2-amino-4-methylpentyloxy)-9-hydroxy-6-methylbenzo[c][2,7]naphthyridin-5(6H)-one], the pIC50 is 7.96. Still for that read-out and setting: the value for `COCCn1c(=O)c2c(C)nccc2c2ccc(OC[C@@H](N)CC(C)C)cc21` [Example 80, (S)-8-((2-amino-4-methylpentyl)oxy)-6-(2-methoxyethyl)-4-methylbenzo[c][2,7]naphthyridin-5(6H)-one] was 6.87. On to `Cc1nccc2c1c(=O)n(C)c1c(Cl)c(OC[C@@H](N)CC(C)C)ccc21` [Example 61, (S)-8-((2-amino-4-methylpentyl)oxy)-7-chloro-4,6-dimethylbenzo[c][2,7]naphthyridin-5(6H)-one], for which the pIC50 is 6.90. Consider `Cc1nccc2c1c(=O)[nH]c1c(F)c(OC[C@@H](N)CC(C)C)ccc12` [Example 82, (S)-8-(2-amino-4-methylpentyloxy)-7-fluoro-4-methylbenzo[c][2,7]naphthyridin-5(6H)-one], for which the pIC50 was 6.82.

On to `Cc1nccc2c1c(=O)n(C)c1cc(OC[C@H](CC(C)C)N(C)C)ccc21` [Example 40, (S)-8-((2-(dimethylamino)-4-methylpentyl)oxy)-4,6-dimethylbenzo[c][2,7]naphthyridin-5(6H)-one], for which the pIC50 is 6.91.

With `Cc1nccc2c1c(=O)n(C)c1cc(OC[C@@H](N)CC(C)C)c(C(C)(C)O)cc21` [Example 35, (S)-8-((2-amino-4-methylpentyl)oxy)-9-(2-hydroxypropan-2-yl)-4,6-dimethylbenzo[c][2,7]naphthyridin-5(6H)-one], the pIC50 was 6.94. As for `Cc1cc2c(cn1)c(=O)n(C)c1cc(OC[C@@H](N)CC(C)C)ccc21` [Example 67, (S)-8-((2-amino-4-methylpentyl)oxy)-2,6 dimethylbenzo[c][2,7]naphthyridin-5(6H)-one], the pIC50 was 6.05.

Still in this assay, the particulars now being: given as IC50 range; ATP 22 μM, 3 hours at room temperature.
Turning to `Cc1nccc2c1c(=O)n(C)c1cc(OC[C@@H](N)CC(C)C)c(S(C)(=O)=O)cc21` [Example 76, (S)-8-(2-amino-4-methylpentyloxy)-4,6-dimethyl-9-(methylsulfonyl)benzo[c][2,7]naphthyridin-5(6H)-one], the pIC50 is 5.70 to 7.00.

On to `Cc1nccc2c1c(=O)[nH]c1cc(OCC(C)(N)CC(C)C)c(F)cc12` (centres unmarked) [Example 102, 8-(2-amino-2,4-dimethylpentyloxy)-9-fluoro-4-methylbenzo[c][2,7]naphthyridin-5(6H)-one], for which the pIC50 was 8.00 to 9.00. Same read-out and setting: the same measure for `Cn1c(=O)c2cnccc2c2ccc(OCC(N)CC(F)(F)F)cc21` (centres unmarked) [Example 93, 8-(2-amino-4,4,4-trifluorobutoxy)-6-methylbenzo[c][2,7]naphthyridin-5(6H)-one]: 7.00 to 8.00; for `Cc1nccc2c1c(=O)n(C)c1cc(OC[C@@H](N)CC(C)C)c(C(C)O)cc21` (single isomer, unassigned) [Example 31]: 7.00 to 8.00. Turning to `COc1cc2c3ccnc(C)c3c(=O)n(C)c2cc1OC[C@@H](N)CC(C)C` [Example 89, (S)-8-((2-amino-4-methylpentyl)oxy)-9-methoxy-4,6-dimethylbenzo[c][2,7]naphthyridin-5(6H)-one], the pIC50 is 8.00 to 9.00.

`Cn1c(=O)c2cnccc2c2ccc(OC[C@@H](N)CC(C)(F)F)cc21` [Example 55, (S)-8-((2-amino-4,4-difluoropentyl)oxy)-6-methylbenzo[c][2,7]naphthyridin-5(6H)-one]: the pIC50 is 7.00 to 8.00. With `Cc1nccc2c1c(=O)n(C)c1cc(OCC(N)CC(F)(F)F)ccc21` (single isomer, unassigned) [Example 91], the pIC50 was 7.00 to 8.00.

For the molecule `Cc1nccc2c1c(=O)n(C)c1cc(OC[C@@H](N)CC(C)C)c(OC(F)F)cc21` [Example 90, (S)-8-((2-amino-4-methylpentyl)oxy)-9-(difluoromethoxy)-4,6-dimethylbenzo[c][2,7]naphthyridin-5(6H)-one], the pIC50 was 7.00 to 8.00.

In the case of `CN[C@H](COc1ccc2c3ccncc3c(=O)n(C)c2c1)CC(C)C` [Example 54, (S)-6-methyl-8-((4-methyl-2-(methylamino)pentyl)oxy)benzo[c][2,7]naphthyridin-5(6H)-one], the pIC50 was 7.00 to 8.00. Same read-out and setting: the same measure for `CC(=O)Nc1cc2c(cn1)c(=O)n(C)c1cc(OC[C@@H](N)CC(C)C)ccc21` [Example 18, (S)—N-(8-(2-amino-4-methylpentyloxy)-6-methyl-5-oxo-5,6-dihydrobenzo[c][2,7]naphthyridin-2-yl)acetamide]: 5.70 to 7.00; for `Cc1nccc2c1c(=O)n(C)c1cc(OC[C@@H](N)CC(C)C(F)(F)F)ccc21` (single isomer, unassigned) [Example 87]: 8.00 to 9.00. `Cc1nccc2c1c(=O)[nH]c1c(F)c(OC[C@@H](N)CC(C)C)c(Br)cc12` [Example 100, (S)-8-(2-amino-4-methylpentyloxy)-9-bromo-7-fluoro-4-methylbenzo[c][2,7]naphthyridin-5(6H)-one]: the pIC50 was 8.00 to 9.00.

For the molecule `Cc1nccc2c1c(=O)n(C)c1cc(OCC(N)CC(F)(F)F)ccc21` (single isomer, unassigned) [Example 92], the pIC50 is 8.00 to 9.00. With `CC(C)C[C@H](N)COc1ccc2c3ccncc3c(=O)n(CC3CC3)c2c1` [Example 13, (S)-8-((2-amino-4-methylpentyl)oxy)-6-(cyclopropylmethyl)benzo[c][2,7]naphthyridin-5(6H)-one], the pIC50 was 7.00 to 8.00. Regarding `Cc1cc2c(cn1)c(=O)n(C)c1cc(OC[C@@H](N)CC(C)C)c(Br)cc21` [Example 66], the pIC50 was 5.70 to 7.00. The same measure, in the same setting: the same measure for `Cc1cc2c(cn1)c(=O)n(C)c1cc(OC[C@@H](N)CC(C)C)c(Cl)cc21` [Example 68, (S)-8-((2-amino-4-methylpentyl)oxy)-9-chloro-2,6-dimethylbenzo[c][2,7]naphthyridin-5(6H)-one]: 7.00 to 8.00; for `COC[C@H](N)COc1ccc2c3ccncc3c(=O)n(C)c2c1` [Example 69, (S)-8-(2-amino-3-methoxypropoxy)-6-methylbenzo[c][2,7]naphthyridin-5(6H)-one]: 7.00 to 8.00. Turning to `Cc1nccc2c1c(=O)n(C)c1c(F)c(OCC(C)(N)CC(C)C)ccc21` (centres unmarked) [Example 29, 8-((2-amino-2,4-dimethylpentyl)oxy)-7-fluoro-4,6-dimethylbenzo[c][2,7]naphthyridin-5(6H)-one], the negative logarithm of the IC50 (pIC50) is 5.70 to 7.00. Take `CC(C)C[C@H](N)COc1ccc2c3ccncc3c(=O)n(C(C)C)c2c1` [Example 8, (S)-8-((2-amino-4-methylpentyl)oxy)-6-isopropylbenzo[c][2,7]naphthyridin-5(6H)-one]: the pIC50 was 7.00 to 8.00. Still for that read-out and setting: the same measure for `Cc1nccc2c1c(=O)n(C)c1cc(OC[C@@H](N)CC(C)C)c(C(=O)N(C)C)cc21` [Example 96, (S)-8-((2-amino-4-methylpentyl)oxy)-N,N,4,6-tetramethyl-5-oxo-5,6-dihydrobenzo[c][2,7]naphthyridine-9-carboxamide]: 5.70 to 7.00; for `CC(C)C[C@H](N)COc1ccc2c3ccnc(C(F)F)c3c(=O)n(C)c2c1` [Example 60, (S)-8-(2-amino-4-methylpentyloxy)-4-(difluoromethyl)-6-methylbenzo[c][2,7]naphthyridin-5(6H)-one]: 5.70 to 7.00; for `Cc1nccc2c1c(=O)n(C)c1cc(OC[C@@H](N)CC(C)C)c(-n3cccn3)cc21` [Example 74]: 8.00 to 9.00.
